“Also recorded” adds a separate entry of the source.
Columns and labels:
[1] = tested on: peripheral tissue eCB, NAE, MAG and PG levels; assay: Peripheral tissue NAE, MAG and PG levels after i.p. injection; type: in vivo, mice
Protocol: Mice were sacrificed by cervical dislocation and decapitation. The brain, lungs, liver, stomach, small intestines, and kidneys were then rapidly removed and frozen on a metal block in dry ice. The tissue was then placed in a tube and stored at −80° C. until extraction, usually one day after harvesting. For PG and eCB analysis, lipid extraction from tissue was carried out as described in Patel et al., 2009.
Analytes were quantified using LC-MS/MS on a Quantum triple-quadrupole mass spectrometer in positive-ion mode using selected reaction monitoring. Detection of eicosanoids was performed as described in Kingsley & Marnett, 2007. For fatty acid analysis the mobile phases used were 80 μM AgOAc with 0.1% (v/v) acetic acid in H2O (solvent A) and 120 μM AgOAc with 0.1% (v/v) acetic acid in MeOH (solvent B). The analytes were eluted using a gradient from 20% A to 99% B over 5 minutes. The transitions used were m/z 300→282 for PEA, m/z 328→310 for SEA, m/z 434→416 for OEA, m/z 456→438 for AEA, m/z 464→446 for AEA-d8, m/z 331→257 for 2-PG, m/z 359→285 for 2-SG, m/z 463→389 for 2-OG, m/z 485→411 for 2-AG, m/z 493→419 for 2-AG-d8, m/z 519→409 for AA, and m/z 527→417 for AA-d8. Peak areas for the analytes were normalized to the appropriate internal standard and then normalized to tissue mass for in vivo samples. […]

Human DAGLα = biological target: T1, Human DAGLα (Homo sapiens, UniProt Q9Y4D2); assay: DAGLα activity (Compound A); type: biochemical; details: in vitro
T1 construct: made in house; host or cells: HEK293T cells (transfected, pcDNA3.1D); membranes used
T1 sequence (Q9Y4D2 1-1042): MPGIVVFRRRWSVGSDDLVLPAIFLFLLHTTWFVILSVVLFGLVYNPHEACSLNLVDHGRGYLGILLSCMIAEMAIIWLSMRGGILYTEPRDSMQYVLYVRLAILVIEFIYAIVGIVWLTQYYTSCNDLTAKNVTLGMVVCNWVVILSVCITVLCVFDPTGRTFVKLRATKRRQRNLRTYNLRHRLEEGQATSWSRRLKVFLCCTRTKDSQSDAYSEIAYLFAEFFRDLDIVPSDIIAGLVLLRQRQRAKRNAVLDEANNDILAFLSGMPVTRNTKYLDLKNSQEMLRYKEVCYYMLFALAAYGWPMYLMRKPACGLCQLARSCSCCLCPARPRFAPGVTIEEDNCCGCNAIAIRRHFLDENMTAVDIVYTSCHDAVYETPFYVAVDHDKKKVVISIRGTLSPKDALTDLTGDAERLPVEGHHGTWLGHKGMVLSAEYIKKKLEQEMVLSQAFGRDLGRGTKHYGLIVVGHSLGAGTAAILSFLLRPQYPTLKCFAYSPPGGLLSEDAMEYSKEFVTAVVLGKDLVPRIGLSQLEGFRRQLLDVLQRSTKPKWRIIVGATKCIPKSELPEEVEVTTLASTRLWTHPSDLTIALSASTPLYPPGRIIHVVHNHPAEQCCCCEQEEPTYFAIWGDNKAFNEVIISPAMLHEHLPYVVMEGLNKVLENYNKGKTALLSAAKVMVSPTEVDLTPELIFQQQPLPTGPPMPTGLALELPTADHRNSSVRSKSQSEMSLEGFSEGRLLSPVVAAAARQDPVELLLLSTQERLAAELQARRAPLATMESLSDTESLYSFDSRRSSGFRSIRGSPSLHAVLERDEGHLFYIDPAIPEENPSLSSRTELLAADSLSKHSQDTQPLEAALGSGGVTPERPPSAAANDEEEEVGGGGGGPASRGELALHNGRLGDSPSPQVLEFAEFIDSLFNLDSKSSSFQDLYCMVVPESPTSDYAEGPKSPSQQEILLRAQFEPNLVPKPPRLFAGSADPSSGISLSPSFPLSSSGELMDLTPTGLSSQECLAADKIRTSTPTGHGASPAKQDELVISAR

[2] = biological target: T2, COX-2 in stimulated RAW 264.7 macrophages (Mus musculus, UniProt Q05769); assay: RAW 264.7 macrophage inhibition assay (Compound A); type: cell-based
T2 construct: endogenous in cells; host or cells: RAW 264.7 macrophages stimulated with LPS (and GM-CSF / interferon γ where described)
T2 sequence (Q05769 18-604): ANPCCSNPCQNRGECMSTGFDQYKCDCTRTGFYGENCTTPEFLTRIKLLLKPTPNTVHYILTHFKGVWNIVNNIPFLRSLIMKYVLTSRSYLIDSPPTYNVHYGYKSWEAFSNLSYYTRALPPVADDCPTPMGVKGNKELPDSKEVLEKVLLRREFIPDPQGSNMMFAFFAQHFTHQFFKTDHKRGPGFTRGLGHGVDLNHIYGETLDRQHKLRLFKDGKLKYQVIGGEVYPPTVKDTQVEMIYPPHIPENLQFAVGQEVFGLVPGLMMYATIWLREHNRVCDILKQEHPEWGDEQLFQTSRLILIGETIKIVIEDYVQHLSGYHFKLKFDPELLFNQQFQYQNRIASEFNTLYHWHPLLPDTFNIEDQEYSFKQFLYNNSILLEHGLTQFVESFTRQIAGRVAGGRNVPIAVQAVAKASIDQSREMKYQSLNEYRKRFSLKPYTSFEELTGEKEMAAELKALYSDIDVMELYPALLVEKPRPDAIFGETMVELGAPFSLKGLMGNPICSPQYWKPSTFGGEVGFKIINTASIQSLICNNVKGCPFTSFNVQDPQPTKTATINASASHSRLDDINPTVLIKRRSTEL

human MGL-His (MAGL) = biological target: T3, human MGL-His (MAGL) (Homo sapiens, UniProt Q99685); assay: MAGL activity (Compound A); type: biochemical; details: in vitro
T3 construct: His; made in house; host or cells: E. coli BL21(DE3) pLysS
T3 sequence (Q99685 1-303): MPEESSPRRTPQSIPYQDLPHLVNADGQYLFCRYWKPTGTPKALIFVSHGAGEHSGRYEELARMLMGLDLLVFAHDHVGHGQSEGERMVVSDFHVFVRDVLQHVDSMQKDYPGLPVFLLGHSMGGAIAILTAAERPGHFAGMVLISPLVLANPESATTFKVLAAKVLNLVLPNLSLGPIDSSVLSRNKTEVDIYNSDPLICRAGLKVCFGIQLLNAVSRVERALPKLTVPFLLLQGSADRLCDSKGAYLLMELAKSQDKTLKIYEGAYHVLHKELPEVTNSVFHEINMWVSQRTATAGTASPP

[3] = 10 mg/kg, two hours after injection
[4] = lipopolysaccharide-activated RAW 264.7 macrophages
[5] = stimulated RAW 264.7 macrophages

For `COc1ccc2c(c1)c(CC(=O)N1CCOCC1)c(C)n2C(=O)c1ccc(Cl)cc1` [Compound A, 2-[1-(4-Chloro-benzoyl)-5-methoxy-2-methyl-1H-indol-3-yl]-1-morpholin-4-yl-ethanone], the “AEA levels in the kidney” value [1, 3] was “significantly increased”, the “AEA levels in the lung” value [1, 3] was “significantly increased” and the “AEA levels in the small intestine” value [1, 3] was “significantly increased”. For the same compound, the “AEA levels in the stomach” value [1, 3] was “significantly increased”, the “Liver NAE levels” value ([1]; liver) was “did not affect” and the “2-AG or any other MAG in any tissue” value ([1]; peripheral tissues, 10 mg/kg) was “no effect”. For the same compound, the “Levels of any other NAE in any tissue” value ([1]; peripheral tissues, 10 mg/kg) was “did not affect”, the “PG levels in peripheral tissues” value ([1]; stomach, heart, kidney, lung, intestine) was “no effect” and the “Inhibition of DAGLα” value (Human DAGLα) was “did not inhibit”. For the same compound, the “Inhibition of AA oxygenation in cells” value [2, 4] was “without inhibiting AA oxygenation”, the “Inhibition of eCB oxygenation by COX-2 in cells” value [2, 4] was “effective at inhibiting eCB oxygenation” and the 2-AG levels [2, 5] was “increasing; also recorded: concentration-dependently increased”. The AA levels [2, 5] was “without increasing AA levels”, the 2-AG levels ([2]; stimulated RAW 264.7 macrophages, 3 μM (p=0.007)) was “significantly increased” and the “Inhibition of MAGL” value (human MGL-His (MAGL)) was “did not inhibit”.

From patent publication US20150183737A1, “COMPOSITIONS AND METHODS FOR SUBSTRATE-SELECTIVE INHIBITION OF ENDOCANNABINOID OXYGENATION” (Vanderbilt University, priority 2012, published 2015)
